Laboratory results from ChEMBL document CHEMBL1158095, “Trungapeptins A-C, cyclodepsipeptides from the marine cyanobacterium Lyngbya majuscula” (J Nat Prod, 2006).
The source made the active and inactive calls. The calls are words filed in the database; no cut-off is given here.

What was measured:
KB = test: Cytotoxicity against human KB cells at 10 ug/mL; type: functional, cell-based
LoVo = test: Cytotoxicity against human LoVo cells at 10 ug/mL; type: functional, cell-based

## C#CCCC[C@H]1OC(=O)[C@H]([C@@H](C)CC)NC(=O)[C@@H]2CCCN2C(=O)[C@H](Cc2ccccc2)OC(=O)[C@H](C(C)C)N(C)C(=O)[C@H](C(C)C)NC(=O)[C@H]1C
KB
  Activity: inactive
LoVo
  Activity: inactive
